Experimental data as given in BindingDB's records for doi:10.1128/aac.00737-07 (Duke University Medical Center, 2008).

What was measured:
[1] = Inhibition of HIV1 (isolate YU2) envelope glycoprotein 120-mediated membrane fusion between virus-transfected african green monkey COS cells and human TZM-bl cells by luciferase-based cell-cell fusion assay in presence of IC9564
[2] = Inhibition of HIV1 (isolate YU2) envelope glycoprotein 120-mediated membrane fusion between virus-transfected african green monkey COS cells and human TZM-bl cells by luciferase-based cell-cell fusion assay in absence of IC9564

Compound COc1ccnc2[nH]cc(C(=O)C(=O)N3CCN(C(=O)c4ccccc4)C[C@H]3C)c12 [(R)-1-(4-benzoyl-2-methylpiperazin-1-yl)-2-(4-methoxy-1H-pyrrolo[2,3-b]pyridin-3-yl)ethane-1,2-dione] has an IC50 [1] of 34.4 nM and an IC50 [2] of 137 nM.
